These results are taken from PMC11020070, “Discovery of Protease-Activated Receptor 4 (PAR4)-Tethered Ligand Antagonists Using Ultralarge Virtual Screening” (ACS Pharmacology & Translational Science, 2024).

As a reminder, the pIC50 is the negative decadic logarithm of the IC50, by convention in mol/L. The CLint scaled is a measure of how fast metabolising enzymes remove a compound, apart from limits set by blood flow.

pIC50: −log10 of the molar value. Read-outs that look alike come from different tables or passages of the source.

Details of data set [1]: method as in PMID 35758258, PMID 23222541. As to conditions: phase I, healthy participants; cited from earlier work.
For the next data set, the target named is T1, PAR1 (Homo sapiens, UniProt P25116).
T1 construct: endogenous in cells; host or cells: platelets
T1 sequence (P25116 22-425): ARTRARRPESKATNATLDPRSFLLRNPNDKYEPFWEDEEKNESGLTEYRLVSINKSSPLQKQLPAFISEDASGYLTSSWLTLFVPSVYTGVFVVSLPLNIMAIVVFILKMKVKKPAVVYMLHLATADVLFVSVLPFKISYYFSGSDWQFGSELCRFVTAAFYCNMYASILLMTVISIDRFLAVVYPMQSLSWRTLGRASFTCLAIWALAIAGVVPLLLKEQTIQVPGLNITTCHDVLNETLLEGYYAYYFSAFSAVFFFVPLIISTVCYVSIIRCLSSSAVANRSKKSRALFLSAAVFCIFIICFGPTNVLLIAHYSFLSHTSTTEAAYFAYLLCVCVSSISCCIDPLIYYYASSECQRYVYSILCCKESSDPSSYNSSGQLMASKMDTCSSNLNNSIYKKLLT
More on the design: method as in PMID 22443427, PMID 22077816. As to conditions: cited from earlier work.

The test system of data set [2] is PAR4. Set-up: method as in PMID 27777004. As to conditions: read-out: IC50 against γ-thrombin; cited from earlier work.
A short description of data set [3]: Plasma protein binding, human plasma. It counts as in vitro ADME. The following applies: pH 7.4, read-out: human PPB fu.
The nature of data set [4]: Microsomal stability, human liver microsomes. It counts as in vitro ADME. On the procedure: The metabolic stability of each compound was investigated in mouse and human hepatic microsomes using substrate depletion methodology (% parent compound remaining). Prior to use, microsomes were removed from the freezer and allowed to thaw in a 37 °C water bath before being placed on wet ice.
In separate 96-well plates for each time point, a mixture of 0.1 M potassium phosphate-buffered (pH 7.4), 3 mM MgCl2, and 2.5 mg/mL microsomes were prewarmed at 37 °C for 5 min. Following the preincubation, a 1 μM test compound and 1 mM NADPH (for 3, 7, 15, 25, or 45 min time points) or buffer (for 0 min time point) were added to initiate the reaction. Under standard conditions, reactions were initiated with the addition of NADPH. To delineate the contribution of esterases, some experiments were initiated by the addition of substrate in the presence or absence of NADPH. Plates were incubated at 37 °C under ambient oxygenation. At the respective times, each plate’s reaction was precipitated by the addition of 2 volumes of ice-cold acetonitrile containing an internal standard (carbamazepine, 50 nM). The plates were centrifuged at 4000 rcf (4 °C) for 5 min. The resulting supernatants were transferred and diluted 1:1 (supernatant:water) into new 96-well plates in preparation for LC/MS/MS analysis. Each compound was assayed in triplicate within the same 96-well plate. The in vitro half-life (t1/2, min, eq 1), intrinsic clearance (CLint, mL/min/kg, eq 2), and subsequent predicted hepatic clearance (CLhep, mL/min/kg, eq 3) were determined employing the following equations [drawing 1] 1 [drawing 2] 2 [drawing 3] 3 The estimated percent contribution to metabolism was calculated from the percent substrate lost plots generated from metabolic incubations initiated with the addition of a test compound. Calculations compared the area under the curve (AUC) from conditions in the presence and absence of NADPH and buffer-only (control) conditions (eqs 4 and 5). AUC was calculated by using the trapezoidal method [drawing 4] 4 [drawing 5] 5
The analysis of in vitro samples from microsomal stability or plasma protein binding experiments was determined by employing LCMS/MS with an electrospray ionization-enabled 5500 Sciex instrument (Sciex, Foster City, CA) that was coupled to Agilent HPLC pumps and an autosampler (Agilent Technologies, Santa Clara, CA). Analytes were separated by gradient elution using a Kinetex C18 column (2.1 mm × 50 mm, 5 μm; Phenomenex, Torrance, CA) warmed to 35 °C. Mobile phase A was 0.5% formic acid in water, and mobile phase B was 0.5% formic acid in acetonitrile. […] The total run time was 2.8 min, and the HPLC flow rate was 0.5 mL/min. Mass spectral analyses were performed using multiple reaction monitoring, with transitions and voltages specific for each analyte using a Turbo Ion Spray source (source temperature of 500 °C) in positive ionization mode (5.0 kV spray voltage). Multiple reaction monitoring transitions were the following: 6110B8 (m/z 345.02 → 149.03, DP = 31; EP = 10; CE = 37 and CXP = 14), 6G3R (m/z 421.06 → 225.12, DP = 91; EP = 10; CE = 39 and CXP = 12), 5D22 (m/z 309.068 → 211.16, DP = 131; EP = 10; CE = 29 and CXP = 12), and carbamazepine (m/z 237 → 194, DP = 96; EP = 10; CE = 25 and CXP = 8). Data were analyzed using OS Sciex Analyst 1.5.1 (SCIEX, Framingham, MA), Graphpad Prism 10.1.0 (GraphPad Software, Boston, Massachusetts), and Microsoft Excel version 2310 (Microsoft, Redmond, WA).
A general note: Microsomes from liver hold many membrane-bound enzymes, among them those of drug oxidation.

The next data set has as its target T2, mouse PAR4 (Mus musculus, UniProt O88634).
T2 construct: washed mouse platelets were prepared by collecting cardiac puncture blood; endogenous in cells; host or cells: washed mouse platelets (cardiac puncture blood)
T2 sequence (O88634 17-396): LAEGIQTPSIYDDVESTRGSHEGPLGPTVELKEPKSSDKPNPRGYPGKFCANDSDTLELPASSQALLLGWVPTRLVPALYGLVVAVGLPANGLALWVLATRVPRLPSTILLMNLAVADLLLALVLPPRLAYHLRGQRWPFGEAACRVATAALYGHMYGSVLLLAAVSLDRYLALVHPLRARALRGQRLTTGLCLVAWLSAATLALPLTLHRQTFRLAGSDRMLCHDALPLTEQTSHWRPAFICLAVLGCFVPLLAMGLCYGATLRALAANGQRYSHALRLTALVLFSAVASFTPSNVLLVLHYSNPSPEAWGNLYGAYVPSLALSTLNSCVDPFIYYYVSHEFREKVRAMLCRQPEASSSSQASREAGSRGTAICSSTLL
Briefly: Mouse platelet activity assay, flow cytometry, γ-thrombin activation. Type of data set: cell-based. On the procedure:
For mouse PAR4 activity, washed mouse platelets were prepared by collecting cardiac puncture blood with 200 μL of 20 U/mL heparin. Following centrifugation at 1000 rpm for 15 min, plasma and buffy coat were collected into a separate tube and spiked with apyrase and PGE1. After centrifuging at 1000 rpm for 8 min, the platelet-rich plasma was transferred to another tube and centrifuged at 2200 rpm for 10 min to pellet the platelets. Platelets were resuspended in TBB + apyrase + PGE1. Platelets were counted and diluted in TBB to a final concentration of 2 × 10^7 platelets/mL. 50 μL of platelets were aliquoted to each tube preincubated with 50 μL of TBB with antibodies for mouse GPIIbIIIa and P-selectin (Emfret, Eibelstadt Germany) and either test compound antagonist or DMSO control. Platelets were activated with 316 nM γ-thrombin for 30 min. Samples were then fixed with 100 μL of 2% paraformaldehyde for 20 min and diluted with 300 μL of PBS. Flow cytometry counts are measured as for human platelets on a three-laser BD LSRFortessa (Becton Dickinson) and analyzed with FloJo software.

Data set [5] relates to PAR4. Set-up: method as in PMID 28053157. As to conditions: cited from earlier work.

With `COc1cc(OCc2csc(-c3ccc(C(=O)N(C)C)cc3)n2)c2cc(-c3cn4nc(OC)sc4n3)oc2c1` [BMS-986141], the safety and tolerability result in data set [1] is “safe and well tolerated”.

In the case of `CCOC(=O)N[C@@H]1CC[C@@H]2[C@@H](C1)C[C@H]1C(=O)O[C@H](C)[C@H]1[C@H]2/C=C/c1ccc(-c2cccc(F)c2)cn1` [vorapaxar], the primary efficacy outcome at PAR1 (added to standard care, acute coronary syndrome, phase 3) is recorded as “failed to meet its primary efficacy outcome”. Also, the bleeding result on PAR1 (phase 3, especially intracranial hemorrhage) was “excess of major bleeding”.

As for `COc1nn2cc(-c3c(CO)n(Cc4ccccc4Cl)c4ccc(OC(F)(F)F)cc34)nc2s1` [Compound 6], the negative-log IC50 (pIC50) in the data set on PAR4 [2] was 5.36.

In the case of `O=C(Nc1n[nH]c(-c2cccc(OC(F)F)c2)n1)c1nn(-c2ccccc2)c2c1CCCC2` [Compound 33], the fraction unbound at 4 h in data set [3] came out at 0.006. Also, the CLint scaled at 1 µM in data set [4] (pH 7.4, human liver microsomes, in vitro, reaction started with NADPH) was 416 mL/min/kg. Besides, the “human CLhep” value in data set [4] (predicted hepatic clearance from human liver microsomes) was 20 mL/min/kg. Besides, the pIC50 on mouse PAR4 (Table 4 summary, read-out: mouse PAR4 IC50) was 6.53; at mouse PAR4 (mouse platelets, 316 nM γ-thrombin, GPIIbIIIa (JonA), read-out: Mouse Platelets JonA IC50), 6.53; on mouse PAR4 (mouse platelets, 316 nM γ-thrombin, P-selectin, read-out: Mouse Platelets P-Sel IC50), 6.46.

In the case of `COc1cc(OCc2nc(N3CCOCC3)sc2C)c2cc(-c3cn4nc(OC)sc4n3)oc2c1` [BMS-986120], in data set [1], the safety and tolerability entry was “safe and well tolerated”. In addition, the antithrombotic activity entry in the data set with PAR4 [5] (cynomolgus monkey arterial thrombosis model) is “potent and highly efficacious antithrombotic activity”. Besides, the bleeding liability result with PAR4 [5] (nonhuman primate model) is given as “low bleeding liability”.
